# Assay results: ChEMBL document CHEMBL2203120, “Contribution to investigation of antimicrobial activity of styrylquinolines” (Bioorg Med Chem, 2012)
# Where a SMILES comes first, the peptide text is derived from it. Bridges are numbered along the chain shown (N, C = ends). [ ]: non-standard residue; d: D form. The star is where a group is joined. Ileψ(thiazoline)Cys = CC[C@H](C)[C@H](N)C1=N[C@H](C(=O)*)CS1; dOrn = NCCC[C@@H](N)C(=O)O
# Assays:
# [1] = Lipophilicity, log P of compound by RP-HPLC analysis; format: physicochemical
# [2] = tested on: Staphylococcus epidermidis; test: Antimicrobial activity against Staphylococcus epidermidis H 6966/08 after 48 hrs by broth microdilution method; format: functional; details: H 6966/08, 48 h
# [3] = tested on: Staphylococcus epidermidis; test: Antimicrobial activity against Staphylococcus epidermidis H 6966/08 after 24 hrs by broth microdilution method; format: functional; details: H 6966/08, 24 h
# Staphylococcus aureus [4] = test: Antimicrobial activity against methicillin-resistant Staphylococcus aureus H 5996/08 after 48 hrs by broth microdilution method; format: functional; details: H 5996/08, 48 h
# Staphylococcus aureus [5] = test: Antimicrobial activity against methicillin-resistant Staphylococcus aureus H 5996/08 after 24 hrs by broth microdilution method; format: functional; details: H 5996/08, 24 h
# Staphylococcus aureus [6] = test: Antimicrobial activity against Staphylococcus aureus CCM 4516/08 after 48 hrs by broth microdilution method; format: functional; details: CCM 4516/08, 48 h
# Staphylococcus aureus [7] = test: Antimicrobial activity against Staphylococcus aureus CCM 4516/08 after 24 hrs by broth microdilution method; format: functional; details: CCM 4516/08, 24 h
# [8] = tested on: Trichophyton mentagrophytes; test: Antimicrobial activity against Trichophyton mentagrophytes 445 after 72 hrs by broth microdilution test; format: functional; details: Trichophyton mentagrophytes, 445, 72 h
# Lichtheimia corymbifera = test: Antimicrobial activity against Absidia corymbifera 272 after 24 hrs by broth microdilution test; format: functional; details: Lichtheimia corymbifera, 272, 24 h
# Aspergillus fumigatus = test: Antimicrobial activity against Aspergillus fumigatus 231 after 24 hrs by broth microdilution test; format: functional; details: Aspergillus fumigatus, 231, 24 h
# Trichosporon beigelii [9] = test: Antimicrobial activity against Trichosporon beigelii 1188 after 24 hrs by broth microdilution test; format: functional; details: Trichosporon beigelii, 1188, 24 h
# Nakaseomyces glabratus [10] = test: Antimicrobial activity against Candida glabrata 20/I after 24 hrs by broth microdilution test; format: functional
# Pichia kudriavzevii [11] = test: Antimicrobial activity against Candida krusei ATCC 6258 after 24 hrs by broth microdilution test; format: functional; details: ATCC 6258, 24 h
# Candida tropicalis [12] = test: Antimicrobial activity against Candida tropicalis 156 after 24 hrs by broth microdilution test; format: functional; details: Candida tropicalis, 156, 24 h
# Candida albicans [13] = test: Antimicrobial activity against Candida albicans ATCC 44859 after 24 hrs by broth microdilution test; format: functional; details: ATCC 44859, 24 h
# Trichosporon beigelii [14] = test: Antimicrobial activity against Trichosporon beigelii 1188 after 48 hrs by broth microdilution test; format: functional; details: Trichosporon beigelii, 1188, 48 h
# Nakaseomyces glabratus [15] = test: Antimicrobial activity against Candida glabrata 20/I after 48 hrs by broth microdilution test; format: functional
# Pichia kudriavzevii [16] = test: Antimicrobial activity against Candida krusei ATCC 6258 after 48 hrs by broth microdilution test; format: functional; details: ATCC 6258, 48 h
# Candida tropicalis [17] = test: Antimicrobial activity against Candida tropicalis 156 after 48 hrs by broth microdilution test; format: functional; details: Candida tropicalis, 156, 48 h
# Candida albicans [18] = test: Antimicrobial activity against Candida albicans ATCC 44859 after 48 hrs by broth microdilution test; format: functional; details: ATCC 44859, 48 h
SMILES,logP [1],MIC90 [2] [µM],MIC90 [3] [µM],MIC90 (Staphylococcus aureus [4]) [µM],MIC90 (Staphylococcus aureus [5]) [µM],MIC90 (Staphylococcus aureus [6]) [µM],MIC90 (Staphylococcus aureus [7]) [µM],MIC50 [8] [µM],MIC50 (Lichtheimia corymbifera) [µM],MIC50 (Aspergillus fumigatus) [µM],MIC80 (Trichosporon beigelii [9]) [µM],MIC80 (Nakaseomyces glabratus [10]) [µM],MIC80 (Pichia kudriavzevii [11]) [µM],MIC80 (Candida tropicalis [12]) [µM],MIC80 (Candida albicans [13]) [µM],MIC80 (Trichosporon beigelii [14]) [µM],MIC80 (Nakaseomyces glabratus [15]) [µM],MIC80 (Pichia kudriavzevii [16]) [µM],MIC80 (Candida tropicalis [17]) [µM],MIC80 (Candida albicans [18]) [µM]
Oc1ccccc1/C=C/c1ccc2ccccc2n1,4.34,> 250,> 500,> 250,> 250,> 250,> 250,> 125,> 125,> 125,> 125,> 125,> 125,> 125,> 125,,,,,
Oc1cccc2ccc(/C=C/c3ccccc3Cl)nc12,4.9,> 500,> 500,> 500,> 500,> 500,> 500,> 500,> 500,> 500,> 500,> 500,> 500,> 500,> 500,,,,,
Clc1ccccc1/C=C/c1ccc2ccccc2n1,5.25,> 500,> 500,> 500,> 500,> 500,> 500,> 500,> 500,> 500,> 500,> 500,> 500,> 500,> 500,,,,,
CCOc1ccc(/C=C/c2ccc3ccccc3n2)cc1,4.61,> 500,> 500,> 500,> 500,> 500,> 500,> 500,> 500,> 500,> 500,> 500,> 500,> 500,> 500,,,,,
Clc1ccccc1/C=C/c1ccc2cccc(Cl)c2n1,5.85,> 500,> 500,> 500,> 500,> 500,> 500,> 500,> 500,> 500,> 500,> 500,> 500,> 500,> 500,,,,,
CCOc1ccccc1/C=C/c1ccc2cccc(O)c2n1,4.55,> 500,> 500,> 500,> 500,> 500,> 500,> 500,> 500,> 500,> 500,> 500,> 500,> 500,> 500,,,,,
CCOc1ccc(/C=C/c2ccc3cccc(O)c3n2)cc1,4.55,> 500,> 500,> 500,> 500,> 500,> 500,> 500,> 500,> 500,> 250,> 250,> 500,> 500,> 500,,,,,
Oc1c(Cl)cc(Cl)c2ccc(/C=C/c3ccccc3Cl)nc12,6.02,,,,,,,,,,,,,,,,,,,
Oc1ccccc1/C=C/c1ccc2c(Cl)cc(Cl)c(O)c2n1,5.07,,,,,,,,,,,,,,,,,,,
Oc1ccc(/C=C/c2ccc3c(Cl)cc(Cl)c(O)c3n2)cc1,5.07,62.5,62.5,31.2,31.2,15.6,7.81,,,,,,,,,> 125,> 125,> 125,> 125,> 125
Oc1ccc(/C=C/c2ccc3c(Cl)cc(Cl)c(O)c3n2)c(O)c1,4.68,31.2,15.6,62.5,31.2,62.5,15.6,,,,,,,,,,,,,
Oc1cc(O)cc(/C=C/c2ccc3c(Cl)cc(Cl)c(O)c3n2)c1,4.68,125,31.2,125,125,125,125,,,,> 125,> 125,> 125,> 125,> 125,> 125,> 125,> 125,> 125,> 125
Oc1c(Cl)cc(Cl)c2ccc(/C=C/c3ccc(/C=C/c4ccc5c(Cl)cc(Cl)c(O)c5n4)cc3)nc12,8.88,125,62.5,125,62.5,125,62.5,3.9,,3.9,3.9,0.49,0.98,,0.98,,,,,3.9
Oc1ccc(/C=C/c2ccc3c(Cl)cc(Cl)c(O)c3n2)cc1O,4.68,31.2,15.6,62.5,31.2,62.5,62.5,,,,,,,,,,,,,
CC[C@H](C)[C@H](N)C1=N[C@H](C(=O)N[C@@H](CC(C)C)C(=O)N[C@H](CCC(=O)O)C(=O)N[C@H](C(=O)N[C@H]2CCCCNC(=O)[C@H](CC(N)=O)NC(=O)[C@@H](CC(=O)O)NC(=O)[C@H](Cc3cnc[nH]3)NC(=O)[C@@H](Cc3ccccc3)NC(=O)[C@H]([C@@H](C)CC)NC(=O)[C@@H](CCCN)NC2=O)[C@@H](C)CC)CS1 [BACITRACIN] ({Ileψ(thiazoline)Cys}-L[dE]IK[dOrn]I[dF]H[dD]N; lactam 4-C),,31.6,15.6,31.6,15.6,31.2,15.6,,,,,,,,,,,,,
O=C(O)c1cn(C2CC2)c2cc(N3CCNCC3)c(F)cc2c1=O [CIPROFLOXACIN],,250,250,500,500,0.98,0.98,,,,,,,,,,,,,
CC1(C)S[C@@H]2[C@H](NC(=O)COc3ccccc3)C(=O)N2[C@H]1C(=O)O [PENICILLIN V],,125,31.2,125,125,0.24,0.24,,,,,,,,,,,,,
